{"source": "patent US20250051300A1", "about": "“GRAM-NEGATIVE SPECIFIC ANTIBIOTICS SPARING EFFECT ON GUT MICROBIOME” (THE BOARD OF TRUSTEES OF THE UNIVERSITY OF ILLINOIS, priority 2021, published 2025)", "key": {"[1]": {"system": "Faecalibacterium prausnitzii", "experiment": "MIC, gut commensal bacteria, micro-dilution broth"}, "Bacteroides fragilis": {"system": "Bacteroides fragilis", "experiment": "MIC, gut commensal bacteria, micro-dilution broth"}, "[2]": {"experiment": "Pharmacokinetic assessment in mice (serum, LC-MS/MS)", "assay_type": "in vivo, C57BL/6 mice", "conditions": "for Cmax / half-life / AUC: female, 200 mg/kg single dose; for Cmax / half-life: C57BL/6, mouse, serum; for AUC: C57BL/6, mouse serum", "experimental": "C57BL/6 mice were treated with lolamcyin at a single dose of 200 mg/kg via IP injection (formulated in 50% DMSO and 50% PEG400) or oral gavage (formulated in 20% DMSO, 30% water, and 50% PEG400) with three mice per time point (0, 15, 30, 45, 60, 120, 240, 480, 960, and 1,440 min). Mice were then sacrificed and serum concentrations of lolamycin were determined by liquid chromatography-tandem mass spectrometry (LC-MS/MS). Oral bioavailability was calculated by comparing the concentration of lolamycin in mouse serum levels resulting from these two administration routes.\nPharmacokinetic Assessment of compound 2 and lolamycin. The protocol was approved by the Institutional Animal Care and Use Committee (IACUC) at the University of Illinois at Urbana-Champaign. In these studies, 10- to 12-week-old female C57BL/6 mice purchased from Charles River Laboratories were used. Mice were randomly chosen and divided into subsequent groups. No additional randomization was used to allocate the experimental groups; blinding was not performed for subsequent quantitation. First, the pharmacokinetic assessment via intraperitoneal injection was determined. Compound 2 and lolamycin were formulated in 50% DMSO and 50% PEG400. Mice were treated with compound 2 (200 mg/kg) or lolamycin (200 mg/kg) via intraperitoneal injection, with three mice per time point (0, 15, 30, 45, 60, 120, 240, 480, 960, and 1,440 min). At the specified time points, mice were killed, blood was collected and centrifuged, and the serum was frozen at −80° C. until analysis. The proteins in a 10-μL aliquot of serum were precipitated by the addition of 50 μL methanol with the addition of 10 μL internal standard. The sample was then vortexed and centrifuged to remove the proteins. Supernatants were analyzed with the QTRAP 5500 LC/MS/MS system (Sciex) in the Metabolomics Laboratory of the Roy J. Carver Biotechnology Center, University of Illinois at Urbana-Champaign.\nNext, the pharmacokinetic assessment via oral gavage was determined. Lolamycin was formulated in 20% DMSO, 30% water, and 50% PEG400. Mice were treated with lolamycin (200 mg/kg) via oral gavage, with three mice per time point (0, 15, 30, 45, 60, 120, 240, 480, 960, and 1,440 min). At the specified time points, mice were killed, blood was collected and centrifuged, and the serum was frozen at −80° C. until analysis similar to before. Software Analyst 1.6.2 was used for data acquisition and analysis. The 1200 Series HPLC system (Agilent Technologies) includes a degasser, an autosampler and a binary pump. The liquid chromatography separation was performed on an Agilent Zorbax SB-Aq column (4.6×50 mm; 5 μm) with mobile phase A (0.1% formic acid in water) and mobile phase B (0.1% formic acid in acetonitrile). The autosampler was set at 10° C. The injection volume was 5 μL. Mass spectra were acquired using electrospray ionization with a voltage of 5,500 V. The source temperature was 450° C. The curtain gas, ion source gas 1 and ion source gas 2 were […], respectively. Multiple reaction monitoring was used for quantitation with external standard. The limit of quantitation of (S/N=10) was 1 nM. Pharmacokinetic parameters were calculated with a one-compartment model using a nonlinear regression program (Phoenix WinNonlin Version 8.1; Certara USA)."}, "Lactobacillus reuteri": {"system": "Lactobacillus reuteri", "experiment": "MIC, gut commensal bacteria, micro-dilution broth"}, "Bifidobacterium longum": {"system": "Bifidobacterium longum", "experiment": "MIC, gut commensal bacteria, micro-dilution broth"}, "E. cloacae ATCC 29893": {"system": "E. cloacae ATCC 29893", "experiment": "Resistance frequency, large inoculum method", "assay_type": "cell-based, Enterobacter cloacae", "conditions": "wild-type E. cloacae ATCC 29893, 8×MIC", "experimental": "Selection of resistant mutants. Resistant mutants were selected using the large inoculum method. Briefly, E. coli BW25113, K. pneumoniae ATCC 27736, or E. cloacae ATCC 29893 (˜1.0×10^7 c.f.u.) was plated on 100-mm plates of Luria Bertani agar containing 8, 16, 32, or 64 μg/mL, lolamycin. For E. coli ΔtolC (JW5503), ˜1.0×10^7 c.f.u. was plated on 100-mm plates of Luria Bertani agar containing 0.063, 0.13, 0.25, 0.5 μg/mL lolamycin. Colonies were visible after incubating at 37° C. for 48 h. Resistant colonies were confirmed by growing colonies in selective media with the same concentration of lolamycin."}}}
{"smiles": "Cc1cc(-c2c[nH]nc2-c2cccc(OCc3cccc(C#N)c3)c2)cc(C)n1", "note": "[Compound 12, 3-((3-(4-(2,6-dimethylpyridin-4-yl)-1H-pyrazol-3-yl)phenoxy)methyl)benzonitrile]", "values": [{"measurement": "MIC", "setting": "[1]; Faecalibacterium prausnitzii ATCC 27768, BHI-ych, listed as Lolamycin", "result": ">128", "unit": "µg/mL"}, {"measurement": "MIC", "setting": "[1]; Faecalibacterium prausnitzii, ATCC27768", "result": "> 128", "unit": "µg/mL"}, {"measurement": "MIC", "setting": "Bacteroides fragilis; Bacteroides fragilis ATCC 25285, BHI-ych, listed as Lolamycin", "result": ">128", "unit": "µg/mL"}, {"measurement": "MIC", "setting": "Bacteroides fragilis; Bacteroides fragilis, ATCC25285", "result": "> 128", "unit": "µg/mL"}, {"measurement": "Cmax", "setting": "[2]; IP injection", "result": 38.2, "unit": "µM"}, {"measurement": "half-life", "setting": "[2]; IP injection", "result": 2.07, "unit": "h"}, {"measurement": "Cmax", "setting": "[2]; oral gavage", "result": 26.4, "unit": "µM"}, {"measurement": "half-life", "setting": "[2]; oral gavage", "result": 1.1, "unit": "h"}, {"measurement": "AUC", "setting": "[2]; IP injection", "result": 43400, "unit": "ng·h/mL"}, {"measurement": "AUC", "setting": "[2]; oral gavage", "result": 20500, "unit": "ng·h/mL"}, {"measurement": "Oral bioavailability", "setting": "[2]; mice, oral vs IP, 200 mg/kg", "result": "significant oral bioavailability"}, {"measurement": "MIC", "setting": "Lactobacillus reuteri; Lactobacillus reuteri ATCC 23272, BHI-ych, listed as Lolamycin", "result": ">128", "unit": "µg/mL"}, {"measurement": "MIC", "setting": "Lactobacillus reuteri; Limosilactobacillus reuteri, ATCC23272", "result": "> 128", "unit": "µg/mL"}, {"measurement": "MIC", "setting": "Bifidobacterium longum; Bifidobacterium longum ATCC BAA-999, BHI-ych, listed as Lolamycin", "result": ">128", "unit": "µg/mL"}, {"measurement": "MIC", "setting": "Bifidobacterium longum; Bifidobacterium longum, ATCCBAA999", "result": "> 128", "unit": "µg/mL"}, {"measurement": "resistance frequency", "setting": "E. cloacae ATCC 29893", "result": "5.2×10^−7"}]}
